Data: article PMC7179958 (CPT: Pharmacometrics & Systems Pharmacology, 2020)

Key:
[1] = Semimechanistic PBPK model simulation in simulated healthy volunteers; design: species or system human
Description: Uptake is inhibited by the opposing drug in X 3 via the respective uptake concentration at half of the maximum uptake velocity (K m.up.X) shown as the inhibition constant (K I.up). Passive movement of drug into and out of the liver is through clearances P dif.X and P def.X, respectively. Both drugs are cleared through biliary excretion (CLbi.X) into the gallbladder (X 5), and into X 2 where they can be reabsorbed.
The micro‐rate constants for transporter‐mediated uptake and passive uptake were scaled to macro‐rate constants (see Table 2 ) and then empirically scaled up to the human body (83 kg, healthy adult; ^23 see Table 2 ).
The ODE PBPK model (see Figure 1 for schematic and Supplemental Material for the set of ODEs) was developed using desolve ^27 in R‐studio (v1.1.463, R‐Studio Inc., Boston, MA) running R‐project version 3.6.0 ^28 and was similar to that used for eltrombopag and rosuvastatin. ^5 All figures in this article were generated either within Inkscape (0.93, Inkscape.org, Boston, MA) or cowplot, ggplot2, ^29 , ^30 extrafont, ^31 and Cairo. ^32

[2] = test system: human hepatocytes; test: Uptake of pitavastatin and eltrombopag in cryopreserved human hepatocytes (oil spin method), comeasurement, micro‐rate constant mechanistic model; type: in vitro ADME
Procedure: (§1) Human hepatocytes were obtained from BioIVT (Brussels, Belgium; lot number: LYB; 10 donor LiverPool (8 Caucasians, 1 African American, and 1 Hispanic) and thawed according to supplier guidelines in Leibovitz L15 medium. Hepatocytes were kept on ice prior to use and were used within 3 hours of defrosting.
(§2) Cells were separated using an oil spin method similar to the literature. ^11 , ^17 After separation, the tubes were frozen on dry ice and the bottom layer was cut off.
(§3) A dilution factor of 100 was used to scale from pmol/mL/1 × 10^5 cells to nmol/mL/1 × 10^6 cells.
(§4) Passive rate constants for movement into and out of the cell (k f.X and k bX, respectively) as well as uptake transporter‐mediated rate constants for association to the transporter (k aX) and dissociation (k dX) and translocation (k tX) from the transporter into the medium and cell, respectively. […] The sets of ODEs for all the models (models 1–4; Table 1 ) tested for structural identifiability and used for parameter estimation are included in the Supplemental Material .
(§5) Parameter estimation was conducted within Monolix 2018 R2 (Lixoft, Antony, France) for each concentration and experiment as an individual data set, where to ensure positivity, a log‐normal distribution was assumed for each parameter, with a proportional residual error model for the observations.
(§6) Hepatocyte Incubations. […] Eltrombopag was dissolved in DMSO to give 30 µmol/mL, then diluted 333-fold to 90 nmol/mL in Leibovitz L15 medium. […] Briefly, 0.5 mL microtubes (12049877, Thermo-Fisher Scientific, Gothenburg, Sweden) layered with 15 µL of 4 % cesium chloride onto which 140 µL of 8:2 silicone oil: mineral oil, with oil red O was added. Samples were taken by transferring 100 µL of hepatocyte suspension into the microtube and spun for 15 s in a Minispin centrifuge (Eppendorf, Horsholm, Denmark), during which time the hepatocytes passed through the oil into the cesium chloride bottom layer. The tubes were then frozen on dry ice and the bottom layer cut off once frozen into a 1 mL deep well plate (260252, Thermo-Fisher Scientific, Gothenburg, Sweden).
(§7) Sample Extraction. 50 µL of water suitable for UPLC (MilliQ ELGA water, Merck-Millipore, Solna, Sweden) and 150 µL of stop solution (50:50 MeOH:MeCN, containing 0.8 % formic acid and 4 pmol/mL 5,5-diethyl-1,3-diphenyl-2-iminobarbituric acid as internal standard) were added to the frozen samples of the cut-off tube bottoms. Samples were mixed on a plate shaker for 1 h and then stored at – 80 °C overnight. Prior to analysis, samples were defrosted and mixed for 30 min before centrifugation of the plates at 4000 g for 20 min at 4 °C. Samples were transferred to a conical bottomed 96 well plate for analysis (249944, Thermo-Fisher Scientific, Gothenburg, Sweden) and diluted 1:1 with MilliQ ELGA water.
(§8) Mechanistic Modeling. […] An estimate for the total amount of transporters (To) can be obtained during the mechanistic modeling process (9, 10), and therefore Tf can be replaced using the conservation law during parameter estimation:
(§9) Parameter estimation for all model were conducted within the Monolix suite 2018 R2 (Lixoft, Antony, France) where to ensure positivity, a log-normal distribution was assumed for each parameter in the candidate models, together with a proportional residual error model for the observations.

[3] = as above; type: in vitro ADME; settings: human; model 1; conditional mode (minimum‐maximum) for 1 × 10^6 cells
Procedure: as §1, §2, §3, §4, §5, §6, §7, §8, §9

[4] = cited from earlier work
[5] = test system: human hepatocytes; settings: cited from earlier work
[6] = Fraction unbound in hepatocytes, Rapid Equilibrium Dialysis (RED) device; type: in vitro ADME; settings: human, heat inactivated hepatocytes
Procedure: Fraction Unbound in Hepatocytes. The estimation of the fraction unbound in hepatocytes at equilibrium can be obtained using multiple techniques: heat inactivated hepatocytes (3); linear regression obtained using the logD7.4 (4); parameter estimation (1, 3, 5, 6) or as separate binding rate constants determined experimentally (7). […] The RED device works with low volumes across a medium chamber (500 µL, white) and incubation chamber containing the hepatocytes (300 µL, red), and as such has been reported to even out the non-specific binding (NSB) between the membrane and wells, thereby improving recovery (8). The free fraction in the incubation (fu.inc) is calculated as:
fu.inc= [medium chamber] Whiteincubation chamber(Red) . (Eq.S1)
The amount of non-specific binding (NSB) to the labware is important to understand the recovery from the RED device experiment to evaluate the reliability of fu.inc: […]

[7] = test system: OATP1B1 and OATP1B3; settings: OATP1B1 and OATP1B3, in vitro; cited from earlier work
[8] = Plasma protein binding and blood:plasma ratio (literature); type: in vitro ADME; settings: blood; fu.pl.P/Bl:Pl, Eq. 15, from literature values 3, 24
[9] = Static R value for clinical TrDDI (FDA guidance); design: species or system human; settings: for R value, static model: eltrombopag perpetrator (75 mg), pitavastatin victim, Eq. 2, FDA cut‐off 1.1
[10] = model 1, conditional mode (minimum‐maximum) for 1 × 10^6 cells
[11] = model 1 micro‐rate constants, conditional mode (minimum‐maximum) for 1 × 10^6 cells
[12] = human hepatocytes over 70 seconds

- CLmet.X, metabolic clearance ([1]; PBPK model value, Eqs. 10 and 11): 93 mL/min/liver
- CLbi.X, biliary clearance ([1]; PBPK model value, Eqs. 12 and 13): 165 mL/min/liver
- clearance ([1]; human, plasma and urine, PBPK model value, Eq. 14): 12 mL/min
- K a.X, first‐order absorption rate constant ([1]; pitavastatin, from mean residence time PO and IV, Eq. 5): 0.07 min⁻¹
- F T.X, fraction transported ([2]; CLup.X/(CLup.X+Pdif.X), Eq. 4): 0.96 (0.94–0.98)
- K m.up.X or K I.up.X ([2]; from micro‐rate constants, Eq. 7): 9,525 ng/mL
- P def.X ([2]; k bX scaled to a clearance): 0.62 (0.55‐0.67) µL/min/1 × 10^6 cells
- P dif.X ([2]; k fX scaled to a clearance): 0.55 (0.46–0.61) µL/min/1 × 10^6 cells
- k bX, passive rate constant out of the cell [2, 10]: 0.21 (0.18–0.22) /min
- V max.up..X, maximum uptake velocity ([2]; scaled to whole liver, Eq. 6): 3.0 × 10^7 ng/min/liver
- P dif.X, passive diffusion into the cell ([2]; scaled to whole liver, Eq. 8): 118 mL/min/liver
- P def.X, passive diffusion out of the cell ([2]; scaled to whole liver, Eq. 9): 104 mL/min/liver
- V max.up ([2]; transporter rate constants transformed, Eq. 6): 302 (177–639) pmol/min/1 × 10^6 cells
- K m.up ([2]; transporter rate constants transformed, Eq. 7): 22.1 (16.7–25.5) nmol/mL
- k el [3]: 0.00367 s⁻¹
- fraction unbound ([6]; RED device, overnight, pitavastatin 0.3, 10 and 100 nmol/ml, eltrombopag 30 nmol/ml, read-out: f u.inc, fraction unbound in the incubation): 0.9
- fraction unbound ([6]; pitavastatin, estimated from RED f u.inc, Eq. 16, read-out: f u.L.X, fraction unbound in the liver): 0.026
- recovery ([6]; RED device, read-out: analytical recovery): 55%
- fraction unbound [8]: 0.009
- R value, static model [9]: 1.07
- R value, static model ([9]; listed as Pitavastatin): 1.06–1.07
- estimated I in.max ([9]; pitavastatin as perpetrator, clinical dose 1–4 mg): 0.5 to 3 nmol/mL
SMILES: O=C(O)C[C@H](O)C[C@H](O)/C=C/c1c(C2CC2)nc2ccccc2c1-c1ccc(F)cc1 [pitavastatin, pitavastatin calcium]
- effect of pitavastatin on cellular eltrombopag ([2]; experimental data, except at a pitavastatin incubation of 30–100 nmol/mL): No effect
- k fX, passive rate constant into the cell [2, 10]: 5.5 × 10^−4 (4.6 × 10^−4–6.1 × 10^−4) /min
- k aX, transporter association rate constant [2, 11]: 0.17 (0.14–0.25) /nmol/min
- k dX, transporter dissociation rate constant [2, 11]: 2.2 (1.97–2.37) /min
- k tX, transporter translocation rate constant [2, 11]: 1.65 (1.57–1.74) /min
- biliary elimination of pitavastatin [4]: 53%
- AUC0−∞ (literature) ([4]; pitavastatin only, oral 1 mg, converted to blood concentration, mean ± SD): 68 ± 49 ng·h/mL
- Cmax ([4]; pitavastatin only, oral 1 mg, healthy volunteers, converted to blood concentration, mean ± SD): 38.8 ± 21.9 ng/mL
- tmax (h) ([4]; pitavastatin only, oral 1 mg, healthy volunteers): 1 (0.5–1) h
- V c.X, volume of the central compartment ([4]; pitavastatin, total blood volume): 5820. Total blood volume [ ^23 ] mL
- K m.up.P (literature) [5]: 1.4 to 2 nmol/mL
- P dif.P (literature) [5]: 0.4–13 µL/min/1 × 10^6 cells
- V max.up.P (literature) [5]: 65–354 pmol/min/1 × 10^6 cells
- k aP (literature) [5, 12]: 7.4 (51%) /nmol/min/1 × 10^6 cells
- k dP (literature) [5, 12]: 6.3 /min/1 × 10^6 cells
- k tP (literature) [5, 12]: 4.3 (85%) /min/1 × 10^6 cells
- P def.P (literature, micro‐rate constants) ([5]; ref Grandjean et al. 11): 0.89 (27%) µL/min/1 × 10^6 cells
- fraction transported [7]: 0.78
